Patent US11584744B2 (UNIVERSITY OF WASHINGTON, priority 2017, dated 2023)
In brackets after ≈: the same amount, converted by molar mass. Read-outs that look alike come from different tables or passages of the source. Marks after values point to notes of the source that are not given here.

Experiments:
[1] = system: S. epidermidis (ATCC 49134); assay: MIC susceptibility testing; type: cell-based; conditions: Staphylococcus epidermidis, ATCC49134, read-out: S. epidermidis (ATCC 49134) MIC
[2] = system: S. aureus MRSA (ATCC 43300); assay: MIC susceptibility testing; type: cell-based; conditions: Staphylococcus aureus, read-out: S. aureus MRSA (ATCC 43300) MIC
Method in brief: (§1)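 CLSI broth microdilution with two-fold compound dilutions, in triplicate; cells added in medium at 1×10^6 CFUs/mL, DMSO ≤0.5%. Media: MHB for S. aureus, CA-MHB for E. coli and E. faecium, CA-MHB plus 3% laked horse blood for S. pyogenes (5% CO2).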

[3] = system: S. aureus MSSA (ATCC 19636); assay: MIC susceptibility testing; type: cell-based; conditions: Staphylococcus aureus, read-out: S. aureus MSSA (ATCC 19636) MIC
Method in brief: as §1

[4] = system: S. epidermidis (ATCC 12228); assay: MIC susceptibility testing; type: cell-based; conditions: Staphylococcus epidermidis, ATCC12228, read-out: S. epidermidis (ATCC 12228) MIC
[5] = system: E. faecium (ATCC 19434); assay: MIC susceptibility testing; type: cell-based; conditions: Enterococcus faecium, ATCC19434, read-out: E. faecium (ATCC 19434) MIC
Method in brief: as §1

[6] = system: S. pneumoniae (ATCC 49619); assay: MIC susceptibility testing; type: cell-based; conditions: Streptococcus pneumoniae, ATCC49619, 18 h, read-out: S. pneumoniae (ATCC 49619) MIC
[7] = system: E. faecalis (ATCC 29212); assay: MIC susceptibility testing; type: cell-based; conditions: Enterococcus faecalis, ATCC29212, read-out: E. faecalis (ATCC 29212) MIC
[8] = system: S. aureus VISA (ATCC 700699); assay: MIC susceptibility testing; type: cell-based; conditions: Staphylococcus aureus, read-out: S. aureus VISA (ATCC 700699) MIC
Method in brief: as §1

[9] = system: S. pyogenes (ATCC 19615); assay: MIC susceptibility testing; type: cell-based; conditions: Streptococcus pyogenes, ATCC19615, 18 h, read-out: S. pyogenes (ATCC 19615) MIC
[10] = system: S. aureus; assay: Serum shift assays (MIC with and without 50% human serum); type: cell-based, Staphylococcus aureus; conditions: for MIC: Staphylococcus aureus
Description: Serum shift assays: To assess the role of protein binding on compound susceptibility, MIC determinations were performed in triplicate in the presence and absence of 50% human serum. Serial threefold dilutions of 2× compound were generated in MHB and aliquoted onto 96 well plates with a DMSO limit of 0.5%. Bacteria were adjusted to 1*10^8 CFUs/mL in MHB, then further diluted 1:100 in MHB and 100% heat deactivated filter sterilized pooled human serum. Fifty microliters were added to each well of the corresponding plates, and the plates were incubated at 37° C. for ˜20 h. The lowest concentration causing ≥90% growth inhibition was recorded as the MIC.

[11] = target: recombinant S. aureus MetRS enzyme (Staphylococcus aureus, UniProt A0A0H2XID2); assay: Inhibition of SaMetRS, ATP depletion assay; type: biochemical; conditions: recombinant enzyme; lower limit of detection 0.025 μM; read-out: MetRS S. aureus (enzyme) IC50
Method in brief: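 IC50 values come from sigmoidal fits of percent inhibition, based on ATP left after 120 min as measured by Kinase-Glo. Substrates were 20 μM L-methionine and 150 nM ATP, added after compounds sat 15 min at room temperature with 25 nM His-tagged SaMetRS, bulk E. coli tRNA, pH 7.9 HEPES buffer and 2% DMSO.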

[12] = system: E. faecium VRE (ATCC 51559); assay: MIC susceptibility testing; type: cell-based, Enterococcus faecium; conditions: Enterococcus faecium, read-out: E. faecium VRE (ATCC 51559) MIC
Method in brief: as §1

[13] = value printed with (49), probably a literature reference; cited from earlier work
[14] = system: S. aureus MSSA (ATCC 29213); assay: MIC susceptibility testing; type: cell-based, Staphylococcus aureus; conditions: Staphylococcus aureus, 18 h, read-out: S. aureus MSSA (ATCC 29213) MIC
[15] = system: S. aureus MRSA (ATCC 33591); assay: MIC susceptibility testing; type: cell-based, Staphylococcus aureus; conditions: Staphylococcus aureus, read-out: S. aureus MRSA (ATCC 33591) MIC
Method in brief: as §1

[16] = system: S. aureus (ATCC 29213); assay: MBC determinations (with MIC); type: cell-based; conditions: Staphylococcus aureus, ATCC29213
Description: Maximum DMSO concentrations were 0.5%. […] Each experiment's inoculum was serially diluted and plated on TSA to count competent cells. Cultures were incubated at 37° C. for at least 20 h and plated on TSA for CFU determination.
MIC/MBC: Measurements of minimum bactericidal concentrations (MBCs) were done with the S. aureus strain ATCC 29213 (Table 5).

[17] = Cytotoxicity testing on mammalian cells (AlamarBlue, 48 hours); type: cell-based; conditions: human
Description: Cytotoxicity testing on mammalian cells: Compounds were assayed for cytotoxicity against CRL-8155 (human lymphoblasts) and HepG2 cells (human hepatocellular carcinoma). Cells were exposed to serial dilutions of compounds for 48 hours and toxicity was quantified using AlamarBlue (ThermoFisher Scientific, Waltham, Mass.). Assays were performed in quadruplicate and EC50 values were calculated with non-linear regression methods using software by the Collaborative Drug Database (Burlingame, Calif. www.collaborativedrug.com)

[18] = Data from Drugbank; cited from earlier work

recombinant S. aureus MetRS enzyme, sequence (A0A0H2XID2 2-657): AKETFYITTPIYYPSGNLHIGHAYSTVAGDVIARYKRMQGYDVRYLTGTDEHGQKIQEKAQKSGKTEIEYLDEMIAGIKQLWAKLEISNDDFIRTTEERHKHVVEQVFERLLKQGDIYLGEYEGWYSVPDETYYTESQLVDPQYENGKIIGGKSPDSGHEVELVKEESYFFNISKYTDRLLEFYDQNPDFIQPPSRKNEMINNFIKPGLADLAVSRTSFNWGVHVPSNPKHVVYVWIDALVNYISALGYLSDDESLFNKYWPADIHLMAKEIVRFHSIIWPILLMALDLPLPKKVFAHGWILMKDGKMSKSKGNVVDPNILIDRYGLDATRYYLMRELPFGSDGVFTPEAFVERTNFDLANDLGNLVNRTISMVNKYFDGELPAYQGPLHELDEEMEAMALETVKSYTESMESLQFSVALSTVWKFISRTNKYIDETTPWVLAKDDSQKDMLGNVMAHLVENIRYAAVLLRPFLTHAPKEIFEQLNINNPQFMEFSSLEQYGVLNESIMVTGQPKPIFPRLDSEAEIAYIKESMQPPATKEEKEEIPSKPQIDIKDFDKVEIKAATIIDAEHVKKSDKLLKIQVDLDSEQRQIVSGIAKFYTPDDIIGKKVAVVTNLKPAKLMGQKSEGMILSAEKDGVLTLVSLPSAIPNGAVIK

CN[C@H](CC(C)C)C(=O)N[C@H]1C(=O)N[C@@H](CC(N)=O)C(=O)N[C@H]2C(=O)N[C@H]3C(=O)N[C@H](C(=O)N[C@H](C(=O)O)c4cc(O)cc(O)c4-c4cc3ccc4O)[C@H](O)c3ccc(c(Cl)c3)Oc3cc2cc(c3O[C@@H]2O[C@H](CO)[C@@H](O)[C@H](O)[C@H]2O[C@H]2C[C@](C)(N)[C@H](O)[C@H](C)O2)Oc2ccc(cc2Cl)[C@H]1O [VAN, vancomycin]
MIC [1]: 2.5 µg/mL (≈ 1.73 µM)
MIC [2]: 1.25 µg/mL (≈ 0.863 µM)
MIC [3]: 1.25 µg/mL (≈ 0.863 µM)
MIC [4]: 2.5 µg/mL (≈ 1.73 µM)
MIC [5]: 0.625 µg/mL (≈ 0.431 µM)
MIC [6]: 0.313 µg/mL (≈ 0.216 µM)
MIC [7]: 5 µg/mL (≈ 3.45 µM)
MIC [8]: 10 µg/mL (≈ 6.9 µM)
MIC [9]: 0.625 µg/mL (≈ 0.431 µM)
Avg MIC ± SEM (+50% serum) ([10]; 50% human serum): 1.213 ± 0.12 µg/mL
MIC ([10]; read-out: Avg MIC ± SEM (+50% serum), 50% human serum): 1.21 µg/mL
MIC ([10]; read-out: Avg MIC ± SEM (no serum), no serum): 0.714 ± 0.05 µg/mL
IC50 [11]: > 10 µM
MIC [12]: > 10 µg/mL
% binding to mouse plasma [13]: 25 (49) %
MIC [14]: 1.25 µg/mL (≈ 0.863 µM)
MIC [15]: 1.25 µg/mL (≈ 0.863 µM)
MBC [16]: 5 µg/mL (≈ 3.45 µM)
MIC [16]: 1.25 µg/mL (≈ 0.863 µM)
CC50 at 48 h ([17]; CRL-8155 cells (human lymphoblasts), read-out: Mamm. cells (CRL8155) CC50): > 145 µg/mL
CC50 at 48 h ([17]; HepG2 cells (human hepatocellular carcinoma), read-out: Mamm. cells (HepG2) CC50): > 145 µg/mL
% binding to human plasma [18]: 55* %
